From PubChem BioAssay (NCI)
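Method: 48-hour compound exposure of cells in 96-well plates, five concentrations, linear interpolation of endpoints. TGI marks complete inhibition of growth.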

What was measured:
Test in all cases: NCI-60 cell line screen, 48 h
[1] = tested on: OVCAR-3 ovarian
[2] = tested on: NCI/ADR-RES ovarian
[3] = tested on: CCRF-CEM leukemia
[4] = tested on: DU-145 prostate
[5] = tested on: NCI-H460 lung
[6] = tested on: MCF7 breast
[7] = tested on: U251 CNS
[8] = tested on: OVCAR-5 ovarian
[9] = tested on: SNB-19 CNS
[10] = tested on: HS 578T breast
[11] = tested on: SK-MEL-2 melanoma
[12] = tested on: SR leukemia
[13] = tested on: SNB-75 CNS
[14] = tested on: HT29 colon
[15] = tested on: UACC-62 melanoma
[16] = tested on: SK-MEL-5 melanoma
[17] = tested on: HCC-2998 colon
[18] = tested on: NCI-H522 lung
[19] = tested on: OVCAR-8 ovarian
[20] = tested on: NCI-H226 lung
[21] = tested on: UACC-257 melanoma
[22] = tested on: IGROV1 ovarian
[23] = tested on: SF-295 CNS
[24] = tested on: HCT-116 colon
[25] = tested on: KM12 colon
[26] = tested on: 786-0 renal
[27] = tested on: M14 melanoma
[28] = tested on: MDA-MB-435
[29] = tested on: HL-60(TB) leukemia
[30] = tested on: SK-MEL-28 melanoma
[31] = tested on: TK-10 renal
[32] = tested on: HCT-15 colon
[33] = tested on: BT-549 breast
[34] = tested on: EKVX NSCLC
[35] = tested on: UO-31 renal
[36] = tested on: SF-539 CNS
[37] = tested on: SF-268 CNS
[38] = tested on: CAKI-1 renal
[39] = tested on: PC-3 prostate
[40] = tested on: SN12C renal
[41] = tested on: HOP-62 NSCLC
[42] = tested on: ACHN renal
[43] = tested on: SW-620 colon
[44] = tested on: MALME-3M melanoma
[45] = tested on: T-47D breast
[46] = tested on: MDA-N
[47] = tested on: MDA-MB-231 breast
[48] = tested on: OVCAR-4 ovarian
[49] = tested on: SK-OV-3 ovarian
[50] = tested on: K-562 leukemia
[51] = tested on: COLO 205 colon
[52] = tested on: A498 renal
[53] = tested on: HOP-92 NSCLC
[54] = tested on: A549 NSCLC
[55] = tested on: NCI-H23 lung
[56] = tested on: LOX IMVI melanoma
[57] = tested on: DLD-1 colon
[58] = tested on: DMS 273 small cell lung
[59] = tested on: RPMI-8226 leukemia
[60] = tested on: M19-MEL melanoma
[61] = tested on: KM20L2 colon
[62] = tested on: LXFL 529 NSCLC
[63] = tested on: SNB-78 CNS
[64] = tested on: MOLT-4 leukemia
[65] = tested on: RXF 393 renal

COc1cc2ccc(C(=O)NCCCNC(=O)c3ccc4cc(OC)c(OC)cc4c3)cc2cc1OC
TGI [1]: > 100 µM
TGI [2]: > 100 µM
TGI [3]: > 100 µM
TGI [4]: > 100 µM
TGI [5]: > 100 µM
TGI [6]: > 100 µM
TGI [7]: > 100 µM
TGI [8]: > 100 µM
TGI [9]: > 100 µM
TGI [10]: > 100 µM
TGI [11]: > 100 µM
TGI [12]: > 100 µM
TGI [13]: 95.8 µM
TGI [14]: > 100 µM
TGI [15]: > 100 µM
TGI [16]: > 100 µM
TGI [17]: > 100 µM
TGI [18]: > 100 µM
TGI [19]: > 100 µM
TGI [20]: > 100 µM
TGI [21]: > 100 µM
TGI [22]: > 100 µM
TGI [23]: > 100 µM
TGI [24]: > 100 µM
TGI [25]: > 100 µM
TGI [26]: > 100 µM
TGI [27]: > 100 µM
TGI [28]: > 100 µM
TGI [29]: > 100 µM
TGI [30]: > 100 µM
TGI [31]: > 100 µM
TGI [32]: > 100 µM
TGI [33]: > 100 µM
TGI [34]: > 100 µM
TGI [35]: > 100 µM
TGI [36]: > 100 µM
TGI [37]: > 100 µM
TGI [38]: > 100 µM
TGI [39]: > 100 µM
TGI [40]: > 100 µM
TGI [41]: > 100 µM
TGI [42]: > 100 µM
TGI [43]: > 100 µM
TGI [44]: > 100 µM
TGI [45]: > 100 µM
TGI [46]: > 100 µM
TGI [47]: > 100 µM
TGI [48]: > 100 µM
TGI [49]: > 100 µM
TGI [50]: > 100 µM
TGI [51]: > 100 µM
TGI [52]: > 100 µM
TGI [53]: > 100 µM
TGI [54]: > 100 µM
TGI [55]: > 100 µM
TGI [56]: > 100 µM

C=CCn1c(=S)sc2c(C(=O)OCC)c3c(C)cc(C)cn3c2c1=O
TGI [1]: > 100 µM
TGI [57]: > 100 µM
TGI [3]: > 100 µM
TGI [58]: > 100 µM
TGI [5]: > 100 µM
TGI [7]: > 100 µM
TGI [8]: > 100 µM
TGI [9]: > 100 µM
TGI [11]: > 100 µM
TGI [12]: > 100 µM
TGI [13]: > 100 µM
TGI [14]: > 100 µM
TGI [15]: > 100 µM
TGI [16]: > 100 µM
TGI [17]: > 100 µM
TGI [18]: > 100 µM
TGI [19]: > 100 µM
TGI [20]: > 100 µM
TGI [59]: > 100 µM
TGI [21]: > 100 µM
TGI [22]: > 100 µM
TGI [60]: > 100 µM
TGI [23]: > 100 µM
TGI [24]: > 100 µM
TGI [26]: > 100 µM
TGI [27]: > 100 µM
TGI [29]: > 100 µM
TGI [30]: > 100 µM
TGI [61]: > 100 µM
TGI [31]: > 100 µM
TGI [32]: > 100 µM
TGI [62]: > 100 µM
TGI [34]: > 100 µM
TGI [35]: > 100 µM
TGI [36]: > 100 µM
TGI [37]: > 100 µM
TGI [38]: > 100 µM
TGI [40]: > 100 µM
TGI [41]: > 100 µM
TGI [42]: > 100 µM
TGI [43]: > 100 µM
TGI [44]: > 100 µM
TGI [49]: > 100 µM
TGI [50]: > 100 µM
TGI [51]: > 100 µM
TGI [63]: > 100 µM
TGI [64]: > 100 µM
TGI [54]: > 100 µM
TGI [55]: > 100 µM
TGI [65]: > 100 µM
TGI [56]: > 100 µM

COc1cc2cc(C(=O)N3CC(COS(C)(=O)=O)c4ccc(NC(=O)OCc5ccccc5)cc43)[nH]c2c(OC)c1OC (stereo not given)
TGI [1]: > 100 µM
TGI [2]: > 100 µM
TGI [3]: > 100 µM
TGI [4]: > 100 µM
TGI [5]: > 100 µM
TGI [6]: > 100 µM
TGI [7]: > 100 µM
TGI [8]: > 100 µM
TGI [9]: > 100 µM
TGI [10]: > 100 µM
TGI [11]: > 100 µM
TGI [12]: > 100 µM
TGI [13]: > 100 µM
TGI [14]: > 100 µM
TGI [15]: > 100 µM
TGI [16]: > 100 µM
TGI [17]: > 100 µM
TGI [18]: > 100 µM
TGI [19]: > 100 µM
TGI [20]: > 100 µM
TGI [21]: > 100 µM
TGI [22]: > 100 µM
TGI [23]: > 100 µM
TGI [24]: > 100 µM
TGI [25]: > 100 µM
TGI [26]: > 100 µM
TGI [27]: > 100 µM
TGI [28]: > 100 µM
TGI [29]: > 100 µM
TGI [30]: > 100 µM
TGI [31]: > 100 µM
TGI [32]: > 100 µM
TGI [33]: > 100 µM
TGI [34]: > 100 µM
TGI [35]: > 100 µM
TGI [36]: > 100 µM
TGI [37]: > 100 µM
TGI [38]: > 100 µM
TGI [39]: > 100 µM
TGI [40]: > 100 µM
TGI [41]: > 100 µM
TGI [42]: > 100 µM
TGI [43]: > 100 µM
TGI [44]: > 100 µM
TGI [45]: > 100 µM
TGI [46]: > 100 µM
TGI [47]: > 100 µM
TGI [48]: > 100 µM
TGI [49]: > 100 µM
TGI [50]: > 100 µM
TGI [51]: > 100 µM
TGI [64]: > 100 µM
TGI [52]: > 100 µM
TGI [53]: > 100 µM
TGI [54]: > 100 µM
TGI [55]: > 100 µM
TGI [65]: > 100 µM
TGI [56]: > 100 µM
